Measured values published in patent US10738011B2, “Derivatives of 5-(hetero)arylpyrazol-3-carboxylic amide or 1-(hetero)aryltriazol-4-carboxylic amide useful for the treatment of inter alia cystic fibrosis” (Proteostasis Therapeutics, Inc., priority 2014, dated 2020).

These molecules were tested against T1, ΔF508-CFTR (Homo sapiens, UniProt P13569, DEL508-508) (assay: hBE Equivalent Current (Ieq) Assay). Conditions: AUC of equivalent chloride current; primary lung epithelial cells homozygous for ΔF508; compound at 10 uM with VX-809 at 1 uM, 24 hours; activity relative to VX-809 (1 uM).
T1 construct: Primary lung epithelial cells homozygous for the Cystic Fibrosis-causing ΔF508 mutation were differentiated; endogenous in cells; host or cells: primary lung (bronchial) epithelial cells (hBE) homozygous for ΔF508, differentiated at an air-liquid interface
T1 sequence (P13569 with tags, fused parts or gaps DEL508-508): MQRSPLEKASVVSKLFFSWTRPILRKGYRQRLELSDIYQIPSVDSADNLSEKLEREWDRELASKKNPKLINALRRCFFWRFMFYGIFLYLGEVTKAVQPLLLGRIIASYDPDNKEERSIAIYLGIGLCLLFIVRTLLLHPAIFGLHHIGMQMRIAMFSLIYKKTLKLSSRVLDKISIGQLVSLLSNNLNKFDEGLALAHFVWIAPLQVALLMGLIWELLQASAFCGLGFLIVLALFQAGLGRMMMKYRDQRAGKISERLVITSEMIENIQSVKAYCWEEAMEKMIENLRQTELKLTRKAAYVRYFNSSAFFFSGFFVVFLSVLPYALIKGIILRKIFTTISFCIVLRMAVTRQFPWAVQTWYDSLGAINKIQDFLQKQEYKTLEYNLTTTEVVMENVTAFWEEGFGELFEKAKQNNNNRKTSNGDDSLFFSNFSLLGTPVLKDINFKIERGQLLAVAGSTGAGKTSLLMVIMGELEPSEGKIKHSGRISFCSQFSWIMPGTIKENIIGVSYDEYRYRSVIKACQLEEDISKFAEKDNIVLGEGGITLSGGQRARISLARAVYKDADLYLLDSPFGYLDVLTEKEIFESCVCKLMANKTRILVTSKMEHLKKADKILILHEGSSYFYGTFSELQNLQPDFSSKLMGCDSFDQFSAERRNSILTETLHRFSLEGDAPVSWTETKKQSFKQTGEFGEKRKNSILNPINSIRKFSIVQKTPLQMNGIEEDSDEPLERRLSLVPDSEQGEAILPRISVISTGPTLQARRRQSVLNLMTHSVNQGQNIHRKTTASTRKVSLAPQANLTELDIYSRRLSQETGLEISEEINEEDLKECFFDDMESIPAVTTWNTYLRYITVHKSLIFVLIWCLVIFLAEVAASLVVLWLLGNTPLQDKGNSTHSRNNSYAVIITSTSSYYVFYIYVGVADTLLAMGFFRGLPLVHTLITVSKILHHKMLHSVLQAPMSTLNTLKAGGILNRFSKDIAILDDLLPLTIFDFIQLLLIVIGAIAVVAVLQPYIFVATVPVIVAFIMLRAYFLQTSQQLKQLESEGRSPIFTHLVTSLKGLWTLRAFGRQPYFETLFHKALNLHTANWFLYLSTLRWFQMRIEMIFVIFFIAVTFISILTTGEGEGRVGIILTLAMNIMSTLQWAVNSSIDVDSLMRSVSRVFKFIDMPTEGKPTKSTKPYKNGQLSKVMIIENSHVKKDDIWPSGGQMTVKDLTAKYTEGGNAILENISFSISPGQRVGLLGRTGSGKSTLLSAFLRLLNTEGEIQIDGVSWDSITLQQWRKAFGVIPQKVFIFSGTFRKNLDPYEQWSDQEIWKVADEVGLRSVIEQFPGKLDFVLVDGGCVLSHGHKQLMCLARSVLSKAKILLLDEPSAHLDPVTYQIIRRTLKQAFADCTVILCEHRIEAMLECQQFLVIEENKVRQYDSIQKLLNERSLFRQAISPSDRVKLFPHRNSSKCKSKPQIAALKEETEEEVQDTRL
Format: cell-based
Experimental: Primary lung epithelial cells homozygous for the Cystic Fibrosis-causing ΔF508 mutation were differentiated for a minimum of 4 weeks in an air-liquid interface on Costar 24 well HTS filter plates prior to the equivalent current (Ieq) measurements. Cells were apically mucus-washed for 30 minutes 24 h prior to treatment with compounds. The basolateral media was removed and replaced with media containing the compound of interest diluted to its final concentration from DMSO stocks. Treated cells were incubated at 37° C. and 5% CO2 for 24 hours. At the end of the treatment period, the media was changed to the Ieq experimental solution for 30 minutes before the experiment and plates are maintained in a CO2-free incubator during this period. The plates containing the cells were then placed in pre-warmed heating blocks at 36° C.±0.5 for 15 minutes before measurements are taken. The transepithelial voltage (VT) and conductance (GT) were measured using a custom 24 channel current clamp (TECC-24) with 24 well electrode manifold. The Ieq assay measurements were made following additions with standardized time periods: • 1. The baseline VT and GT values were measured for approximately 20 minutes. • 2. Benzamil was added to block ENaC for 15 minutes. • 3. Forskolin plus VX-770 were added to maximally activate ΔF508-CFTR for 27 minutes. • 4. Bumetanide was added to inhibit the NaK2Cl cotransporter and shut-off secretion of chloride.
The activity data captured was the area under the curve (AUC) for the traces of the equivalent chloride current. The AUC was collected from the time of the forskolin/VX-770 addition until the inhibition by bumetanide addition. Correction in response to compound treatment was scored as the increase in the AUC for compound-treated samples over that of vehicle-treated samples. (** indicates activity ≥200% of VX-809 (1 uM) with compound at 10 uM and VX-809 at 1 uM; * indicates activity 100-200% of VX-809 (1 uM) with compound at 10 uM and VX-809 at 1 uM. ^## indicates activity ≥200% of VX-809 (3 uM) with compound at 10 uM and VX-809 at 3 uM; ^# indicates activity 100-200% of VX-809 (3 uM) with compound at 10 uM and VX-809 at 3 uM.
With `COCCNC(=O)c1cc(-c2ccccc2)n[nH]1` the Ieq was “* (activity 100-200% of VX-809 (1 uM) with compound at 10 uM and VX-809 at 1 uM)”.
In the case of `O=C(NCC1CCCO1)c1cc(-c2ccccc2)n[nH]1` (stereo not shown), the Ieq was “* (activity 100-200% of VX-809 (1 uM) with compound at 10 uM and VX-809 at 1 uM)”.
`O=C(NCCN1CCOCC1)c1cc(-c2ccccc2)n[nH]1` was tested, and the Ieq was “* (activity 100-200% of VX-809 (1 uM) with compound at 10 uM and VX-809 at 1 uM)”.
In the case of `O=C(NCCCn1ccnc1)c1cc(-c2ccccc2)n[nH]1`, the Ieq was “* (activity 100-200% of VX-809 (1 uM) with compound at 10 uM and VX-809 at 1 uM)”.
